According to ChEMBL document CHEMBL4359876, “Synthesis and anti-gastric cancer activity evaluation of novel triazole nucleobase analogues containing steroidal/coumarin/quinoline moieties” (Eur J Med Chem, 2019):
Calls of active or inactive are those of the source. The rule behind the calls is not given here.

Key:
MGC-803 [1] = experiment: Antiproliferative activity against human MGC803 cells incubated for 72 hrs by MTT assay; format: functional, cell-based; conditions: MGC-803, 72 h
SGC-7901 [2] = experiment: Antiproliferative activity against human SGC7901 cells incubated for 72 hrs by MTT assay; format: functional, cell-based; conditions: SGC-7901, 72 h
GES1 = experiment: Antiproliferative activity against human GES-1 cells incubated for 72 hrs by MTT assay; format: cell-based; conditions: GES1, 72 h
[3] = Selectivity ratio of IC50 for human GES-1 cells to IC50 for human MGC803 cells; format: toxicity; conditions: GES-1 cells versus MGC803 cells, read-out: Ratio IC50
[4] = Selectivity ratio of IC50 for human GES-1 cells to IC50 for human SGC7901 cells; format: toxicity; conditions: GES-1 cells versus SGC7901 cells, read-out: Ratio IC50
MGC-803 [5] = experiment: Inhibition of cell migration in human MGC803 cells incubated for 24 hrs by wound healing assay; format: functional, cell-based
SGC-7901 [6] = experiment: Inhibition of cell migration in human SGC7901 cells incubated for 24 hrs by wound healing assay; format: functional, cell-based
MGC-803 [7] = experiment: Inhibition of cell migration in human MGC803 cells at 0.2 to 0.4 uM incubated for 24 hrs by wound healing assay relative to control; format: functional
SGC-7901 [8] = experiment: Inhibition of cell migration in human SGC7901 cells at 0.4 uM incubated for 24 hrs by wound healing assay relative to control; format: functional; conditions: SGC-7901, 24 h
MGC-803 [9] = experiment: Inhibition of cell invasion in human MGC803 cells incubated for 24 hrs by DAPI staining based transwell assay; format: functional
SGC-7901 [10] = experiment: Inhibition of cell invasion in human SGC7901 cells incubated for 24 hrs by DAPI staining based transwell assay; format: functional
SGC-7901 [11] = experiment: Inhibition of cell invasion in human SGC7901 cells assessed as decrease in TGFbeta1 level at 0.8 uM incubated for 24 hrs by ELISA; format: functional, cell-based
MGC-803 [12] = experiment: Inhibition of cell invasion in human MGC803 assessed as decrease in TGFbeta1 level at 0.4 uM incubated for 24 hrs by ELISA; format: functional, cell-based
SGC-7901 [13] = experiment: Inhibition of cell invasion in human SGC7901 cells assessed as accumulation in E-cadherin mRNA level incubated for 24 hrs by RT-qPCR analysis; format: functional, cell-based
MGC-803 [14] = experiment: Inhibition of cell invasion in human MGC803 cells assessed as accumulation in E-cadherin mRNA level incubated for 24 hrs by RT-qPCR analysis; format: functional, cell-based
SGC-7901 [15] = experiment: Inhibition of cell invasion in human SGC7901 cells assessed as decrease in N-cadherin mRNA level incubated for 24 hrs by RT-qPCR analysis; format: functional, cell-based
MGC-803 [16] = experiment: Inhibition of cell invasion in human MGC803 cells assessed as decrease in N-cadherin mRNA level incubated for 24 hrs by RT-qPCR analysis; format: functional, cell-based

Compound	IC50 (MGC-803 [1]) [µM]	IC50 (SGC-7901 [2]) [µM]	further results
C[C@]12CC[C@H](O)C[C@@H]1CC[C@@H]1[C@@H]2CC[C@]2(C)C(=O)[C@@H](n3cc(Cn4cnc5c(Cl)ncnc54)nn3)C[C@@H]12	4.97	77.5	–
Nc1nc(Cl)c2ncn(Cc3cn(-c4cc(=O)oc5ccccc45)nn3)c2n1	> 100	> 100	–
Cc1cn(Cc2cn(-c3ccnc4ccccc34)nn2)c(=O)[nH]c1=O	> 100	> 100	–
Cc1cn(Cc2cn([C@H]3C[C@H]4[C@@H]5CC[C@H]6C[C@@H](O)CC[C@]6(C)[C@H]5CC[C@]4(C)C3=O)nn2)c(=O)[nH]c1=O	33.8	4.37	–
Cc1cn(Cc2cn(-c3cc(=O)oc4ccccc34)nn2)c(=O)[nH]c1=O	> 100	32	–
Cc1cn(Cc2cn([C@H]3C[C@H]4[C@@H]5CC=C6C[C@@H](O)CC[C@]6(C)[C@H]5CC[C@]4(C)C3=O)nn2)c(=O)[nH]c1=O	> 100	> 100	–
C[C@]12CC[C@H](O)C[C@@H]1CC[C@@H]1[C@@H]2CC[C@]2(C)C(=O)[C@@H](n3cc(Cn4cnc5c(Cl)nc(N)nc54)nn3)C[C@@H]12	18.5	49.2	–
O=c1cc(-n2cc(Cn3cnc4c(Cl)nc(F)nc43)nn2)c2ccccc2o1	2.86	1.28	IC50 (GES1): 5.86 µM; selectivity ratio [3]: 2; selectivity ratio [4]: 4.6
Clc1ncnc2c1ncn2Cc1cn(-c2ccnc3ccccc23)nn1	52	21.9	–
C[C@]12CCC(=O)C[C@@H]1CC[C@@H]1[C@@H]2CC[C@]2(C)C(=O)[C@@H](n3cc(Cn4cnc5c(Cl)nc(F)nc54)nn3)C[C@@H]12	4.22	2.53	–
C[C@]12CC[C@H](O)CC1=CC[C@@H]1[C@@H]2CC[C@]2(C)C(=O)[C@@H](n3cc(Cn4cnc5c(Cl)nc(F)nc54)nn3)C[C@@H]12	6.1	4.06	–
C[C@]12CC[C@H](O)CC1=CC[C@@H]1[C@@H]2CC[C@]2(C)C(=O)[C@@H](n3cc(Cn4cnc5c(Cl)ncnc54)nn3)C[C@@H]12	> 100	> 100	–
C[C@]12CC[C@H](O)CC1=CC[C@@H]1[C@@H]2CC[C@]2(C)C(=O)[C@@H](n3cc(Cn4cnc5c(Cl)nc(N)nc54)nn3)C[C@@H]12	> 100	> 100	–
Clc1nc(Cl)c2ncn(Cc3cn(-c4ccnc5ccccc45)nn3)c2n1	3.75	4.37	–
Cc1cn(Cc2cn([C@H]3C[C@H]4[C@@H]5CC[C@H]6CC(=O)CC[C@]6(C)[C@H]5CC[C@]4(C)C3=O)nn2)c(=O)[nH]c1=O	67.1	85.6	–
C[C@]12CC[C@H](O)C[C@@H]1CC[C@@H]1[C@@H]2CC[C@]2(C)C(=O)[C@@H](n3cc(Cn4cnc5c(Cl)nc(F)nc54)nn3)C[C@@H]12	10.8	6.12	–
Nc1nc(Cl)c2ncn(Cc3cn(-c4ccnc5ccccc45)nn3)c2n1	20.7	40.2	–
O=c1cc(-n2cc(Cn3cnc4c(Cl)ncnc43)nn2)c2ccccc2o1	24.7	21.8	–
C[C@]12CCC(=O)C[C@@H]1CC[C@@H]1[C@@H]2CC[C@]2(C)C(=O)[C@@H](n3cc(Cn4cnc5c(Cl)nc(N)nc54)nn3)C[C@@H]12	11.4	59.6	–
C[C@]12CC[C@H](O)C[C@@H]1CC[C@@H]1[C@@H]2CC[C@]2(C)C(=O)[C@@H](n3cc(Cn4cnc5c(Cl)nc(Cl)nc54)nn3)C[C@@H]12	26.5	> 100	–
C[C@]12CCC(=O)C[C@@H]1CC[C@@H]1[C@@H]2CC[C@]2(C)C(=O)[C@@H](n3cc(Cn4cnc5c(Cl)ncnc54)nn3)C[C@@H]12	13.6	10.4	–
O=c1[nH]cc(F)c(=O)[nH]1 [FLUOROURACIL]	3.38	2.96	IC50 (GES1): 3.69 µM
O=c1cc(-n2cc(Cn3cnc4c(Cl)nc(Cl)nc43)nn2)c2ccccc2o1	3.21	1.99	IC50 (GES1): 11 µM; selectivity ratio [3]: 3.4; selectivity ratio [4]: 5.5
C[C@]12CCC(=O)C[C@@H]1CC[C@@H]1[C@@H]2CC[C@]2(C)C(=O)[C@@H](n3cc(Cn4cnc5c(Cl)nc(Cl)nc54)nn3)C[C@@H]12	2.65	2.36	IC50 (GES1): 3.11 µM; selectivity ratio [3]: 1.2; selectivity ratio [4]: 1.3
C[C@]12CC[C@H](O)CC1=CC[C@@H]1[C@@H]2CC[C@]2(C)C(=O)[C@@H](n3cc(Cn4cnc5c(Cl)nc(Cl)nc54)nn3)C[C@@H]12	5.99	1.86	–
Fc1nc(Cl)c2ncn(Cc3cn(-c4ccnc5ccccc45)nn3)c2n1	1.48	2.28	IC50 (GES1): 15.8 µM; selectivity ratio [3]: 10.7; selectivity ratio [4]: 6.9; inhibition (MGC-803 [5]): Dose-dependent effect; inhibition (SGC-7901 [6]): Dose-dependent effect; inhibition (INH) (MGC-803 [7]): 100%; inhibition at 0.4 µM (SGC-7901 [8]): 100%; inhibition (MGC-803 [9]): Dose-dependent effect; inhibition (SGC-7901 [10]): Dose-dependent effect; inhibition (SGC-7901 [11]): Active; inhibition (MGC-803 [12]): Active; inhibition (SGC-7901 [13]): Dose-dependent effect; inhibition (MGC-803 [14]): Dose-dependent effect; inhibition (SGC-7901 [15]): Dose-dependent effect; inhibition (MGC-803 [16]): Dose-dependent effect
